Where a name gives a salt, the structure may show the parent alone.

The target in assay [1] is T1, human NTCP (Homo sapiens, UniProt Q14973).
T1 sequence (Q14973 1-349): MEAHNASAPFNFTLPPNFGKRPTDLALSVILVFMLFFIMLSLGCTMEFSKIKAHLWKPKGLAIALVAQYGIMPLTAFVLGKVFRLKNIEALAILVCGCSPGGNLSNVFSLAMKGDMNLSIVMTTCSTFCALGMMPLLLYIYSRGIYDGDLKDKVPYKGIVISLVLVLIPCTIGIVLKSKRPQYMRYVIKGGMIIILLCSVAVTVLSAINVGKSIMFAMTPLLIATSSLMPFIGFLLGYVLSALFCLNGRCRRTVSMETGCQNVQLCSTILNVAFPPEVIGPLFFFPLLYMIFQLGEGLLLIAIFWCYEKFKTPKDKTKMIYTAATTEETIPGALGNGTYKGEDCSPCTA
Nature of the assay: Screening taurocholate uptake assay (96-well, [14C]taurocholate, 10 µM drug). To be noted: for B-score functional assay: 10 µM drug.

Assay [2] deals with T1, human NTCP. Nature of the assay: Screening fluorescent competitive Myrcludex B-FITC binding assay (96-well, 10 µM drug). To be noted: 10 µM drug.
The mark [3] stands for this setting: combined ranking from functional and binding screening assays.
[4] abbreviates: screen, Myrcludex B-FITC binding.
Setting [5] is: Prestwick library screen, taurocholate uptake.
Where [6] appears, read: ranking score beside the functional and binding assay B-scores of the screen.
Setting [7] is: Prestwick library screen, Myrcludex B-FITC binding.
Where [8] appears, read: Prestwick library screen, B-score of taurocholate uptake.
Where [9] appears, read: combined ranking from functional and binding assay B-scores.
[10] abbreviates: Prestwick library screen, B-score of Myrcludex B-FITC binding.

As to `CO/N=C(\C(=O)N[C@@H]1C(=O)N2C(C(=O)O)=C(COC(C)=O)CS[C@H]12)c1csc(N)n1` [Cefotaxime sodium salt], the Ranking score at human NTCP [1] (setting [3]) is reported as 382.157. This compound showed a B-score functional assay at human NTCP [1] (screen, taurocholate uptake) of 3.35. On human NTCP [2] (setting [4]), the B-score binding assay is on record as -1.895.
For `NCCc1cc[nH]n1` [Betazole hydrochloride], at human NTCP [1] (setting [5]), the B-score functional assay amounted to 0.019. At human NTCP [1] (setting [6]), this compound registered a Ranking score of 836.299. Moreover, on human NTCP [2] (setting [7]), the B-score binding assay was determined as 1.024.
Regarding `CN1CCC(=C2c3ccccc3CC(=O)c3sccc32)CC1` [Ketotifen fumarate], the Ranking score at human NTCP [1] (setting [3]) is on record as 425.088. For the same compound, on human NTCP [1] (screen, taurocholate uptake), the B-score functional assay is reported as 0.006. Besides, the B-score binding assay on human NTCP [2] (setting [4]) is on record as -0.838.
In the case of `COc1cc(NS(=O)(=O)c2ccc(N)cc2)ncn1` [Sulfamonomethoxine], on human NTCP [1] (setting [5]), the B-score functional assay is recorded as -0.097. The Ranking score on human NTCP [1] (setting [6]) came out at 680.363. Also, the B-score binding assay at human NTCP [2] (setting [7]) is listed as 0.362.
For the compound `CC(C)COCC(CN(Cc1ccccc1)c1ccccc1)N1CCCC1` (stereo not drawn) [Bepridil hydrochloride], at human NTCP [1] (setting [3]), the Ranking score is on record as 392.989. At human NTCP [1] (screen, taurocholate uptake), this compound registered a B-score functional assay of 1.07. The compound also gave a B-score binding assay on human NTCP [2] (setting [4]) of -1.626.
As for `Cc1c(OCC(F)(F)F)ccnc1C[S+]([O-])c1nc2ccccc2[nH]1` (stereo not drawn) [Lansoprazole], the B-score functional assay on human NTCP [1] (setting [8]) was found to be 1.884. In addition, the Ranking score at human NTCP [1] (setting [9]) is 961.173. The compound further registered a B-score binding assay on human NTCP [2] (setting [10]) of 0.157.
In the same order, the values of `CC(Cc1cccc(C(F)(F)F)c1)NCCOC(=O)c1ccccc1` (stereo not drawn) [Benfluorex] are 0.848, 1033.89 and 1.025.
In the same order, the values of `CNC(=C[N+](=O)[O-])NCCSCc1csc(CN(C)C)n1` [Nizatidine] are 0.271, 960.129 and 1.375.
For `CN1CCN(C2=Nc3ccccc3Oc3ccc(Cl)cc32)CC1` [Loxapine succinate], the Ranking score on human NTCP [1] (setting [3]) was 424.073. The compound also returned a B-score functional assay at human NTCP [1] (screen, taurocholate uptake) of -1.397. On human NTCP [2] (setting [4]), this compound returned a B-score binding assay of 0.552.
In the case of `CCn1cc(C(=O)O)c(=O)c2cc3c(cc21)OCO3` [Oxolinic acid], the B-score functional assay on human NTCP [1] (setting [5]) was -0.139. Further, the Ranking score on human NTCP [1] (setting [6]) came to 776.518. This compound also yielded a B-score binding assay at human NTCP [2] (setting [7]) of 1.837.
Take `COc1ccc2[nH]c([S+]([O-])Cc3ncc(C)c(OC)c3C)nc2c1` (stereo not drawn) [Omeprazole]: the Ranking score on human NTCP [1] (setting [3]) amounted to 423.789. This compound also showed a B-score functional assay on human NTCP [1] (screen, taurocholate uptake) of -0.074. The compound further gave a B-score binding assay at human NTCP [2] (setting [4]) of -0.678.
Regarding `C[C@]12C=CC(=O)C=C1CC[C@@H]1[C@@H]2C(=O)C[C@@]2(C)[C@H]1CC[C@]2(O)C(=O)CO` [Prednisone], on human NTCP [1] (setting [3]), the Ranking score is recorded as 427.034. The B-score functional assay on human NTCP [1] (screen, taurocholate uptake) is recorded as -1.367. This compound also registered a B-score binding assay on human NTCP [2] (setting [4]) of 0.54.
In the same order, the values of `Brc1c(NC2=NCCN2)ccc2nccnc12.O=C(O)C(O)C(O)C(=O)O` [Brimondine L-Tartrate] are 294.551, -1.091 and -0.57.
As to `C[C@]12CCC(=O)C=C1CC[C@@H]1[C@@H]2C(=O)C[C@]2(C)C(=O)CC[C@@H]12` [Adrenosterone], the Ranking score at human NTCP [1] (setting [3]) stood at 291.781. The compound further yielded a B-score functional assay at human NTCP [1] (screen, taurocholate uptake) of -0.902. The B-score binding assay at human NTCP [2] (setting [4]) is -0.699.
Turning to `CCN[C@H]1CN(CCCOC)S(=O)(=O)c2sc(S(N)(=O)=O)cc21` [Brinzolamide], on human NTCP [1] (setting [5]), the B-score functional assay is on record as 0.266. On human NTCP [1] (setting [6]), this compound displayed a Ranking score of 792.227. On human NTCP [2] (setting [7]), the B-score binding assay turned out to be 0.124.
The matching figures for `CC(=O)Nc1nnc(S(N)(=O)=O)s1` [Acetazolamide]: 0.532, 696.956 and -0.137.
On human NTCP [1] (setting [5]), `CN(C/C=C/c1ccccc1)Cc1cccc2ccccc12` [Naftifine hydrochloride] showed a B-score functional assay of 0.726. For the same compound, the Ranking score on human NTCP [1] (setting [6]) turned out to be 685.775. This compound also gave a B-score binding assay on human NTCP [2] (setting [7]) of -0.234.
Turning to `CC(C)(C(=O)c1cccnc1)c1cccnc1` [Metyrapone], the B-score functional assay at human NTCP [1] (setting [5]) came to 0.78. On human NTCP [1] (setting [6]), this compound gave a Ranking score of 759.235. In addition, the B-score binding assay on human NTCP [2] (setting [7]) is -0.063.
Regarding `C#C[C@]1(O)CC[C@H]2[C@@H]3[C@H](C)CC4=C(CCC(=O)C4)[C@H]3CC[C@@]21C` [Tibolone], on human NTCP [1] (setting [8]), the B-score functional assay is on record as 0.613. For the same compound, the Ranking score on human NTCP [1] (setting [9]) turned out to be 930.923. The B-score binding assay at human NTCP [2] (setting [10]) turned out to be 0.535.
For the compound `CN(C)CCCN1c2ccccc2Sc2ccc(C(F)(F)F)cc21` [Triflupromazine hydrochloride], the Ranking score on human NTCP [1] (setting [3]) stood at 447.888. This compound displayed a B-score functional assay at human NTCP [1] (screen, taurocholate uptake) of -0.264. On human NTCP [2] (setting [4]), this compound yielded a B-score binding assay of -0.314.
`CC(=O)/N=c1/sc(S(N)(=O)=O)nn1C` [Methazolamide] displayed a B-score functional assay at human NTCP [1] (setting [8]) of 2.368. Also, at human NTCP [1] (setting [9]), the Ranking score stood at 849.129. The compound also displayed a B-score binding assay at human NTCP [2] (setting [10]) of -0.041.
On human NTCP [1] (setting [5]), `Nc1cc(C(Cl)=C(Cl)Cl)c(S(N)(=O)=O)cc1S(N)(=O)=O` [Clorsulon] yielded a B-score functional assay of 0.953. At human NTCP [1] (setting [6]), this compound returned a Ranking score of 659.111. This compound yielded a B-score binding assay on human NTCP [2] (setting [7]) of -0.388.
The matching figures for `CC[C@@]1(O)C(=O)OCc2c1cc1n(c2=O)Cc2cc3c(CN(C)C)c(O)ccc3nc2-1` [Topotecan]: 0.858, 819.148 and 0.007.
Compound `CC[C@@]1(O)C(=O)OCc2c1cc1n(c2=O)Cc2cc3ccccc3nc2-1` [Camptothecine (S,+)] had a B-score functional assay on human NTCP [1] (setting [8]) of 0.986. In addition, at human NTCP [1] (setting [9]), the Ranking score was found to be 879.695. The compound also came in with a B-score binding assay on human NTCP [2] (setting [10]) of 0.08.
Compound `Cl.NC1CCN(c2nc3c(cc2F)c(=O)c(C(=O)O)cn3-c2ccc(F)cc2F)C1` (stereo not drawn) [Tosufloxacin hydrochloride] came in with a B-score functional assay on human NTCP [1] (setting [5]) of 0.009. The Ranking score on human NTCP [1] (setting [6]) is on record as 746.768. For the same compound, on human NTCP [2] (setting [7]), the B-score binding assay is 0.338.
In the same order, the values of `Nc1nc(N)c2nc(-c3ccccc3)c(N)nc2n1` [Triamterene] are 0.708, 725.193 and -0.121.
Regarding `CCCC[N+]1(C)[C@@H]2C[C@@H](OC(=O)[C@H](CO)c3ccccc3)C[C@H]1[C@@H]1O[C@@H]12.[Br-]` (stereo partly drawn) [Butylscopolammonium (n-) bromide], on human NTCP [1] (setting [3]), the Ranking score is 409.241. On human NTCP [1] (screen, taurocholate uptake), this compound returned a B-score functional assay of -0.739. The compound also gave a B-score binding assay at human NTCP [2] (setting [4]) of -0.108.
For `Clc1ccc(C(Cn2ccnc2)OCc2c(Cl)cccc2Cl)c(Cl)c1` (stereo not drawn) [Isoconazole], at human NTCP [1] (setting [8]), the B-score functional assay came out at 0.797. The Ranking score at human NTCP [1] (setting [9]) is recorded as 1126.41. Also, on human NTCP [2] (setting [10]), the B-score binding assay is 2.982.
Regarding `CO[C@@H]1[C@@H](OC(N)=O)[C@@H](O)[C@H](Oc2ccc3c([O-])c(NC(=O)c4ccc(O)c(CC=C(C)C)c4)c(=O)oc3c2C)OC1(C)C.[Na+]` [Novobiocin sodium salt], on human NTCP [1] (setting [8]), the B-score functional assay worked out at 1.027. Further, the Ranking score at human NTCP [1] (setting [9]) worked out at 942.881. At human NTCP [2] (setting [10]), this compound came in with a B-score binding assay of 0.269.
As for `CC(=O)N1CCN(c2ccc(OCC3COC(Cn4ccnc4)(c4ccc(Cl)cc4Cl)O3)cc2)CC1` (stereo not drawn) [Ketoconazole], at human NTCP [1] (setting [3]), the Ranking score was determined as 349.5. Further, the B-score functional assay on human NTCP [1] (screen, taurocholate uptake) came to 0.044. Moreover, the B-score binding assay at human NTCP [2] (setting [4]) is -1.382.
The matching figures for `CC(C)[C@H]1CC[C@H](C(=O)N[C@H](Cc2ccccc2)C(=O)O)CC1` [Nateglinide]: 461.181, -1.02 and 0.322.
Consider `CCN[C@H]1C[C@H](C)S(=O)(=O)c2sc(S(N)(=O)=O)cc21` [Dorzolamide hydrochloride], for which, on human NTCP [1] (setting [3]), the Ranking score is on record as 369.324. At human NTCP [1] (screen, taurocholate uptake), the B-score functional assay is listed as -0.44. Moreover, the B-score binding assay at human NTCP [2] (setting [4]) is -0.624.
At human NTCP [1] (setting [5]), `CCCN1C[C@H](CSC)C[C@@H]2c3cccc4[nH]cc(c34)C[C@H]21` [Pergolide mesylate] registered a B-score functional assay of -0.089. In addition, the Ranking score on human NTCP [1] (setting [6]) stood at 708.625. This compound also yielded a B-score binding assay on human NTCP [2] (setting [7]) of 0.514.
For the compound `O=C([O-])CCNC(=O)c1ccc(/N=N/c2ccc(O)c(C(=O)[O-])c2)cc1.[Na+].[Na+]` [Balsalazide Sodium], the Ranking score at human NTCP [1] (setting [3]) amounted to 403.097. On human NTCP [1] (screen, taurocholate uptake), this compound gave a B-score functional assay of -0.35. At human NTCP [2] (setting [4]), the B-score binding assay is -0.506.
The matching figures for `CCC[C@H](N[C@@H](C)C(=O)N1[C@H](C(=O)O)C[C@@H]2CCCC[C@@H]21)C(=O)OCC` [Perindopril]: 319.862, -2.428 and 1.021.
In turn, `Cc1cc(C(C)(C)C)c(O)c(C)c1CC1=NCCN1` [Oxymetazoline hydrochloride] showed a B-score functional assay at human NTCP [1] (setting [8]) of 0.493. Moreover, the Ranking score at human NTCP [1] (setting [9]) is reported as 1060.78. This compound also yielded a B-score binding assay at human NTCP [2] (setting [10]) of 2.755.
In the same order, the values of `CC1CCc2cc(F)cc3c(=O)c(C(=O)O)cn1c23` (stereo not drawn) [Flumequine] are 2.117, 855.599 and -0.028.

Source of the values: PMC5681660, “Reduced hepatitis B and D viral entry using clinically applied drugs as novel inhibitors of the bile acid transporter NTCP” (Scientific Reports, 2017).
